Measurements published in publication PMC6453916, “Radical-mediated C-S bond cleavage in C2 sulfonate degradation by anaerobic bacteria” (Nature Communications, 2019).
One block for each molecule: values may come before it.

Key:
[1] = target: T1, TauF (BwTauF, sulfoacetaldehyde reductase) (Bilophila wadsworthia, UniProt E5Y946); assay: NADH oxidation at […] nm; format: biochemical; conditions: 5 mM sulfoacetaldehyde (introduced as bisulfite adduct), 0.5 mM NADH, 0.1 M Tris pH 7.5, 0.1 M KCl
T1 construct: gene sarD; codon-optimised, His6-TEV (HT) vector, E. coli
T1 sequence (E5Y946 1-387): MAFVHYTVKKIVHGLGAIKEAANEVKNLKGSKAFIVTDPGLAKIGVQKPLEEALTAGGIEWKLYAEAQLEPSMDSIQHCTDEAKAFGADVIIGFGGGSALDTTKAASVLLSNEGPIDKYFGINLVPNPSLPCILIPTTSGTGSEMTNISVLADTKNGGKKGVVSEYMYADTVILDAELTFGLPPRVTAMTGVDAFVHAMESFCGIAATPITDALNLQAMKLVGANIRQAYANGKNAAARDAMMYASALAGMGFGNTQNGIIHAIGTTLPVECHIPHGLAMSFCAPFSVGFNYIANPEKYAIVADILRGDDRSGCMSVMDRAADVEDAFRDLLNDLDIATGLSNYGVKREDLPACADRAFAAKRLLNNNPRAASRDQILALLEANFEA

[2] = target: T2, DpIseK (substrate-binding subunit of the IseG-associated TRAP transporter) (Desulfovibrio piger, UniProt A0A1K1LFE7); assay: isothermal titration calorimetry
T2 construct: gene DESPIGER_1592; soluble periplasmic subunit, codon-optimised, expressed as His6-MBP-TEV fusion; MBP tag cleaved and removed before ITC
T2 sequence (A0A1K1LFE7 24-332): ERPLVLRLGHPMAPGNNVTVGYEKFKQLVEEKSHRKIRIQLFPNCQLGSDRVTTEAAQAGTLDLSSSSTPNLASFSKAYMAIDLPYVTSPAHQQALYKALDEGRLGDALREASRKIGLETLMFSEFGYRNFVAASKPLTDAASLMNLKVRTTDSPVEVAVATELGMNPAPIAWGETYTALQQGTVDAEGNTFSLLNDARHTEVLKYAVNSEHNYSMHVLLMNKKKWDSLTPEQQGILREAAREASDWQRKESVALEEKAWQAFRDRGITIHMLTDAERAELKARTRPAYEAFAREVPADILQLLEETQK

[3] = target: IseG (−23 a.a.), isethionate sulfo-lyase from Desulfovibrio vulgaris Hildenborough with an N-terminal 23-a.a. truncation (Desulfovibrio vulgaris Hildenborough) (UniProt Q727N1); assay: SEC; 2.5 mg/mL IseG (−23 a.a.), 2 mL on a Superdex 200 column (300 mL), buffer D (10 mM HEPES/KOH pH 7.4, 250 mM KCl, 10 mM BME), 3 mL/min; mass from elution volume against molecular weight markers (observed 196 kDa, monomer calculated 91.3 kDa)
purified protein = substrate: O=S(=O)(O)CCO; assay: purified protein; format: biochemical, Nitratidesulfovibrio vulgaris; conditions: IseG activated by IseH, SAM and Ti(III) citrate; anaerobic, room temperature, 250 nM IseG

Molecule: NC(=O)C1=CN([C@@H]2O[C@H](COP(=O)(O)OP(=O)(O)OC[C@H]3O[C@@H](n4cnc5c(N)ncnc54)[C@H](O)[C@@H]3O)[C@@H](O)[C@H]2O)C=CC1 [NADH]
NADH oxidation at 340 nm [1]: demonstrates that BwTauF is a sulfoacetaldehyde reductase

Molecule: O=CCS(=O)(=O)O [sulfoacetaldehyde]
NADH oxidation at 340 nm [1]: TauF, catalyzed NADH-dependent reduction of sulfoacetaldehyde

Kd [2]: 0.5 µM
Molecule: O=S(=O)(O)CCO [isethionate]

stoichiometry N [3]: 2
Molecule: IseG (−23 a.a.), isethionate sulfo-lyase from Desulfovibrio vulgaris Hildenborough with an N-terminal 23-a.a. truncation (from UniProt Q727N1 24-828) (enzyme)

B1: IseG (GUF, isethionate sulfo-lyase) (Nitratidesulfovibrio vulgaris str. Hildenborough) (protein)
chain: MQCCNQLSPHEQRLQDKIEGKVDRYRATHERVFTILESFDNTRPRIDVERAKYFTESMKATEGQPLPLRWAKALMHIAENMTVYIDDHQLICGRAGYQGRYGVLYPELDGDFLGTAIEDLPNRAESPFAITPEDARVVVEEIAPFWKGKTYHEALNLALPADVHKLTYDDPQGLMSRFIVNETSSFRSSIQWVHDYEKVLKRGFRSIKEEALEKIAALDPMSPCDNVEKRPFLEAIVIVCDAIILWAKRHAKLAAELAAKETDPTRKRELETMAEICAWVPENPARTFHEAVQAQWFTQVFSRIEQKTGTIVSNGRMDQYFWPFYEKDLAEGRITEDSALELLECMWVGMAQYVDLYISPTGGAFNEGYAHWEAVTIGGQTPEGRDATNDLTYLFLKSKREFPLHYPDLAARIHSRSPERYLWEVAETIKDGSGFPKLINDEEVVPLYVSKGATFAEALDYAVSGCTEARMPNRDTYTSGGAYINFAAALEMVLYNGKMLKYGDTDLGAHTGDPCEFKTWEEFWNAYVTQHHLFLKTAFVQQHIINNLRARHFAQPMGSSLHDLCMKHCLDLHTPQIPEGINLGYFEYMGFGTVVDSLSAIKKLVFEDKKLTMGELIEALKCNFEGKEDIQQLLKSAPCYGNNDDYADSIARDIDALSVKYGRRYSPELGMHNDVRYVPFTSHVPFGRVVSATPNGRKAWSALSDGSSASHGADVNGPTAILQSNFNSKNYGMRDRAARMLNIKFTPKCVEGEEGSQKLVSFIRTFCDLKLWHVQFNVINKETLLAAQRDPEKYRNLIVRIAGYSAYFVDLSPDLQNDLIARTGHDVM
notes: pET-28a(+)-His6-IseG, codon-optimised, full length, His tag kept, E. coli BL21(DE3); dimer; glycyl radical installed by IseH/SAM/Ti(III) citrate
Km (purified protein): 44.8 ± 3.5 mM
kcat (purified protein): 91.6 ± 3.3 s⁻¹
